Assay results: US4383113A, “Agricultural sulfonamides” (E. I. Du Pont de Nemours and Company, priority 1981, dated 1983)

Key:
Design in all cases: key: 0 = no effect, 10 = maximum effect; letter = response symbol
[1] = test system: bush bean; test: Test A post-emergence; assay type: in vivo, bush beans; conditions: 0.4 kg/ha
[2] = test system: morningglory; test: Test A post-emergence; assay type: in vivo, Ipomoea spp.; conditions: 0.4 kg/ha
Outline: (§1)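 Seeds and tubers were treated preemergence in a growth medium with compound in a nonphytotoxic solvent, against untreated controls; emerged plants such as two-leaf barnyardgrass and five-leaf cotton were sprayed postemergence, against solvent-sprayed controls. After sixteen days in a greenhouse, response was rated visually from 0 to 10.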

[3] = test system: cocklebur; test: Test A post-emergence; assay type: in vivo, Xanthium spp.; conditions: 0.4 kg/ha
Description: (§2) The activity of these compounds was discovered in a number of greenhouse and field tests. The ratings are based on a numerical scale extending from 0=no effect, to 10=maximum effect. The accompanying descriptive symbols have the following meanings:
(§3) Seeds of crabgrass (Digitaria spp.), barnyardgrass (Echinochloa crusgalli), wild oats (Avena fatua), cassia (Cassia tora), morningglory (Ipomoea spp.), cocklebur (Xanthium spp.), sorghum, corn, soybean, rice, wheat and nutsedge tubers (Cyperus rotundus) were planted in a growth medium and treated preemergence with a nonphytotoxic solvent solution of the compounds of Table XII. Other batches of seeds and tubers for all of the foregoing weed and crop plants were planted at the same time as controls. The control plantings were untreated; i.e., neither any compound nor any solvent was applied. At the same time, cotton having five leaves (including cotyledonary ones), bush beans with the third trifoliate leaf expanding, crabgrass with two leaves, barnyardgrass with two leaves, wild oats with two leaves, cassia with three leaves (including cotyledonary ones), morningglory with four leaves (including the cotyledonary ones), cocklebur with four leaves (including the cotyledonary ones), sorghum with four leaves, corn with four leaves, soybean with two cotyledonary leaves, rice with three leaves, wheat with one leaf, and nutsedge with three-five leaves were sprayed with a nonphytotoxic solvent solution of the compounds of Table XII. Other groups of all the same weed and crop plants were sprayed with the same nonphytotoxic solvent so as to provide control plants. Preemergence and postemergence treated plants and controls were maintained in a greenhouse for sixteen days, then all treated plants were compared with their respective controls and rated visually for response to treatment.

[4] = test system: cassia; test: Test A post-emergence; assay type: in vivo, Cassia tora; conditions: 0.4 kg/ha
Description: as §2, §3

[5] = test system: nutsedge; test: Test A post-emergence; assay type: in vivo, Cyperus rotundus; conditions: 0.4 kg/ha
Outline: as §1

[6] = test system: wild oats; test: Test A post-emergence; assay type: in vivo, Avena fatua; conditions: 0.4 kg/ha
Outline: as §1

[7] = test system: corn; test: Test A post-emergence; assay type: in vivo; conditions: 0.4 kg/ha
Outline: as §1

[8] = test system: cotton; test: Test A post-emergence; assay type: in vivo; conditions: 0.4 kg/ha
Outline: as §1

[9] = test system: wheat; test: Test A post-emergence; assay type: in vivo; conditions: 0.4 kg/ha
Outline: as §1

[10] = test system: morningglory; test: Test A pre-emergence; assay type: in vivo, Ipomoea spp.; conditions: 0.4 kg/ha
Outline: as §1

[11] = test system: cocklebur; test: Test A pre-emergence; assay type: in vivo, Xanthium spp.
Outline: as §1

[12] = test system: cassia; test: Test A pre-emergence; assay type: in vivo, Cassia tora
Outline: as §1

[13] = test system: crabgrass; test: Test A pre-emergence; assay type: in vivo, Digitaria spp.
Description: as §2, §3

[14] = test system: barnyardgrass; test: Test A pre-emergence; assay type: in vivo, Echinochloa crusgalli
Outline: as §1

[15] = test system: wild oats; test: Test A pre-emergence; assay type: in vivo, Avena fatua
Description: as §2, §3

[16] = test system: corn; test: Test A pre-emergence; assay type: in vivo
Outline: as §1

[17] = test system: sorghum; test: Test A pre-emergence; assay type: in vivo
Outline: as §1

[18] = test system: soybean; test: Test A pre-emergence; assay type: in vivo
Outline: as §1

[19] = test system: wheat; test: Test A pre-emergence; assay type: in vivo
Outline: as §1

Compound	response rating [1] [C]	response rating [2] [C]	response rating [3] [C]	response rating [4] [C]	response rating [5]	response rating [7]	response rating [8] [C]	response rating [10] [G]	response rating ([11]; 0.4 kg/ha) [G]	response rating ([12]; 0.4 kg/ha) [G]	response rating ([13]; 0.4 kg/ha)	response rating ([14]; 0.4 kg/ha) [H]	response rating ([15]; 0.4 kg/ha)	response rating ([18]; 0.4 kg/ha) [H]	response rating ([19]; 0.4 kg/ha)	response rating ([16]; 0.4 kg/ha)	response rating ([17]; 0.4 kg/ha) [H]	other results
COc1nc(C)nc(NC(=O)NS(=O)(=O)c2ccccc2C(=O)OC2CCCCCCC2)n1 [drawing 456]	9	10	9	9	4G	9C	9											response rating [6]: 4G; response rating [9]: 2G
CCCCOC(=O)c1ccccc1S(=O)(=O)NC(=O)Nc1nc(OC)cc(OC)n1 [drawing 506]								9	9	9	8G	9	7G	7	9G			response rating ([11]; 2 kg/ha): 9G; response rating ([12]; 2 kg/ha): 9C; response rating ([13]; 2 kg/ha): 7G; response rating ([14]; 2 kg/ha): 9H; response rating ([15]; 2 kg/ha): 8G; response rating ([16]; 2 kg/ha): 9G; response rating ([17]; 2 kg/ha): 9H; response rating ([18]; 2 kg/ha): 9H; response rating ([19]; 2 kg/ha): 9G
CCCCOC(=O)c1ccccc1S(=O)(=O)NC(=O)Nc1nc(C)cc(OC)n1 [drawing 507]								9	9	9	7G	9		9	9H	9G	9	response rating ([11]; 2 kg/ha): 9G; response rating ([14]; 2 kg/ha): 9H; response rating ([16]; 2 kg/ha): 9G; response rating ([17]; 2 kg/ha): 9H; response rating ([18]; 2 kg/ha): 9H; response rating ([19]; 2 kg/ha): 9H
COc1nc(C)nc(NC(=O)NS(=O)(=O)c2ccccc2C(=O)OC(C)C)n1 [drawing 425]	9	10	10	10	10C	10C	9											response rating [9]: 2C
COc1cc(C)nc(NC(=O)NS(=O)(=O)c2ccccc2C(=O)NC(C)C)n1 [drawing 530]								9	8	9	9H	9		9	9H	9H	9	
COC(=O)c1cc(Cl)ccc1S(=O)(=O)NC(=O)Nc1nc(OC)cc(OC)n1 [drawing 433]	9	10	10	9	10C	6H	9											response rating [6]: 9G
COC(=O)c1cc(Cl)ccc1S(=O)(=O)NC(=O)Nc1nc(OC)cc(OC)n1 [drawing 500]								9	9		5G	9	9G	9	3G	9H	9	
COc1nc(C)nc(NC(=O)NS(=O)(=O)c2ccccc2C(=O)OC2CCCCC2C)n1 (stereo not shown)	9	10	9	9		10C	9											
COC(=O)c1ccccc1S(=O)(=O)NC(=O)Nc1nc(OC)cc(OC)n1 [drawing 481]								9	9	9	9H	9	9H		9H	9H	9	
COC(=O)c1ccccc1S(=O)(=O)NC(=O)Nc1nc(C)cc(OC)n1 [drawing 480]								9	9	9	9H	9	9H	9	9H	10H	9	
